Results from the supplement of paper PMC13380429.
Structures can show the parent of a compound that is named as a salt.

How the values were obtained:
Conditions in all cases: 72 h
Caco-2 [1] = assay: cell viability relative to DMSO; higher = less toxic
Calu-3 [2] = assay: as above
HepG2 [3] = assay: as above
U2OS [4] = assay: as above
Vero E6 [5] = assay: as above
Caco-2 [6] = assay: relative viability EC50 (midpoint between 100% and the lowest measured viability); higher = less toxic
Calu-3 [7] = assay: as above
HepG2 [8] = assay: as above
U2OS [9] = assay: as above
Vero E6 [10] = assay: as above
Caco-2 [11] = assay: drug sensitivity score (DSS) for viability; higher = more toxic; extreme values may be limits of the assay
Calu-3 [12] = assay: as above
HepG2 [13] = assay: as above
U2OS [14] = assay: as above
Vero E6 [15] = assay: as above

Structure (SMILES)	cell viability (Caco-2 [1]; 1 nM) [%]	cell viability (Caco-2 [1]; 10 nM) [%]	cell viability (Caco-2 [1]; 100 nM) [%]	cell viability (Caco-2 [1]; 1000 nM) [%]	cell viability (Caco-2 [1]; 10000 nM) [%]	cell viability (Calu-3 [2]; 1 nM) [%]	cell viability (Calu-3 [2]; 10 nM) [%]	cell viability (Calu-3 [2]; 100 nM) [%]	cell viability (Calu-3 [2]; 1000 nM) [%]	cell viability (Calu-3 [2]; 10000 nM) [%]	cell viability (HepG2 [3]; 1 nM) [%]	cell viability (HepG2 [3]; 10 nM) [%]	cell viability (HepG2 [3]; 100 nM) [%]	cell viability (HepG2 [3]; 1000 nM) [%]	cell viability (HepG2 [3]; 10000 nM) [%]	cell viability (U2OS [4]; 1 nM) [%]	cell viability (U2OS [4]; 10 nM) [%]	cell viability (U2OS [4]; 100 nM) [%]	cell viability (U2OS [4]; 1000 nM) [%]	cell viability (U2OS [4]; 10000 nM) [%]	cell viability (Vero E6 [5]; 1 nM) [%]	cell viability (Vero E6 [5]; 10 nM) [%]	cell viability (Vero E6 [5]; 100 nM) [%]	cell viability (Vero E6 [5]; 1000 nM) [%]	cell viability (Vero E6 [5]; 10000 nM) [%]	relative viability EC50 (Caco-2 [6]) [µM]	relative viability EC50 (Calu-3 [7]) [µM]	relative viability EC50 (HepG2 [8]) [µM]	relative viability EC50 (U2OS [9]) [µM]	relative viability EC50 (Vero E6 [10]) [µM]	drug sensitivity score (Caco-2 [11])	drug sensitivity score (Calu-3 [12])	drug sensitivity score (HepG2 [13])	drug sensitivity score (U2OS [14])	drug sensitivity score (Vero E6 [15])
O=C1C(c2ccccn2)=[N+]([O-])c2ccccc21 [PIT]	104	95.1	92.7	92.1	109	95.2	106	94.7	93.9	102	99.8	103	96	91.8	97.9	97.6	100	99	95.3	101	102	102	97	97.6	97.5	> 10	> 10	> 10	> 10	> 10	0	0	0	0	0
CN(C)CC(=O)Nc1ccc2[nH]c(=O)c3ccccc3c2c1 [PJ-34]	91.5	101	99.3	97.2	104	95.5	100	96.2	104	98.5	97.5	99.3	97.8	103	98.6	92.2	102	94	94.6	95.6	96.7	93.2	101	100	102	> 10	> 10	> 10	> 10	> 10	0	0	0	0	0
CCC(C)SSc1ncc[nH]1 (stereo not given) [PX-12]	90.8	100	102	93.1	97.7	106	98	110	84	104	99.3	104	104	98.3	89.8	98	96.4	103	97.5	84.1	96.7	97.8	103	97.5	99.8	> 10	> 10	> 10	> 10	> 10	0	0	0	0.6	0
Cc1cc2nc3c(=O)[nH]c(=O)nc-3n(C)c2cc1C=O [Ro-08-2750]	92.4	90	96.4	90.2	40	104	103	96	102	81.9	109	105	100	109	37.1	94.4	99.2	94.1	97.8	5.6	96.6	94.3	97.6	92.5	101	1.91	> 10	3.78	3	> 10	4.9	0.4	2.9	5.5	0
CCCCc1nc2cc(/C=C/C(=O)NO)ccc2n1CCN(CC)CC [SB-939]	98	97.4	98	37.6	0.6	95.4	89.6	65.5	30.7	7.8	99.3	109	89	15.7	0	101	105	83.9	27.9	1.1	107	99.1	95.5	13.4	-0.1	0.766	0.195	0.362	0.425	0.417	12.9	17.6	16.8	15.5	16.3
Nc1nc2c(ccc3ccccc32)s1 [SKA-31]	99.6	104	97.5	106	93.9	98.3	103	101	103	96.7	118	109	114	110	99.1	100	103	101	102	98.9	102	100	103	100	97.8	> 10	> 10	> 10	> 10	> 10	0	0	0	0	0
CC1CCN(C(c2ccc(F)cc2)c2ccc(C(C)C(=O)O)cc2-c2ccc(C(F)(F)F)cc2)CC1 (stereo not given) [TC-E-5006]	105	99.5	96.2	89	90.1	104	92.3	94.9	96.2	103	97.5	103	99	101	81.6	102	97.9	101	96.5	93.2	97.4	104	95.4	99.2	100	> 10	> 10	> 10	> 10	> 10	0.3	0	0.4	0	0
COc1cccc(C2(O)CCCCC2CN(C)C)c1 (stereo not given) [TRAMADOL HYDROCHLORIDE]	93.9	100	96.2	95.2	98.3	106	98.2	115	101	96.2	93.5	96.8	97.4	89.8	106	103	105	97.5	99.3	99.9	101	103	101	97.4	101	> 10	> 10	> 10	> 10	> 10	0	0	0	0	0
Nc1cccc(-c2cc3c(Oc4cccc(O)c4)ncnc3[nH]2)c1 [TWS-119]	99.3	99.4	98.2	89.5	40.4	108	97.8	86.2	96.4	25.7	113	107	128	104	90.1	103	108	102	96.6	25.2	110	101	101	82.2	24.9	1.85	2.79	> 10	2.82	1.59	5	4.6	0	4.6	7
N#C/C(=C\c1cn(-c2ccccc2)c2ccccc12)C(=O)O [UK-5099]	98.1	106	100	94	104	106	90.1	106	93.1	106	105	101	101	97	95.7	98.5	98.8	95.4	103	106	98.1	102	99.7	99.8	101	> 10	> 10	> 10	> 10	> 10	0	0	0	0	0
CCC(=O)Nc1cccc(Oc2nc(Nc3ccc(N4CCN(C)CC4)cc3OC)ncc2Cl)c1 [WZ4003]	99.3	105	102	99.5	89.3	97	97.7	94.8	96.3	82.5	100	94.3	102	90.9	104	97.3	103	103	105	102	101	100	102	96.2	98.6	> 10	> 10	> 10	> 10	> 10	0	0.7	0	0	0
Cc1nc2ccc(Oc3ccc(F)cc3)cc2c(=O)n1C[C@H]1CCCN(C(C)C)C1 [YIL-781]	102	93.5	87.2	97.5	92.6	107	88.2	94.9	97.7	97.8	101	100	97.4	102	90.7	104	97.1	98.6	94.4	94.7	93.8	98.3	96.4	94.3	88.3	> 10	> 10	> 10	> 10	> 10	0	0	0	0	0
COCCNC(=O)COc1ccc(OCCNC[C@H](O)COc2ccccc2)cc1 [ZD-7114]	95.5	95.1	94.7	86.2	103	99.1	97.2	106	90	108	100	106	93.7	104	97.1	98.4	94.5	104	102	102	103	101	96.7	104	96.5	> 10	> 10	> 10	> 10	> 10	0	0	0	0	0
